Laboratory results reported in patent US11667919B2, “Targeting cancer-associated long non-coding RNAs” (University of Pittsburgh—Of the Commonwealth System of …, priority 2018, dated 2023).

Key:
Type in all cases: cell-based, human
[1] = tested on: MCF-7, BT-474, ZR-75-1 and A549 cells; experiment: MTT growth inhibition by BET inhibitors in EPIC1 knockdown or overexpressing cells; settings: EPIC1 overexpression; MCF-7 and A549 cells
Description: For RNA interference, cells were transfected with 40 nM siRNA targeting EPIC1, or control siRNA using Lipofectamine RNAiMAX (Thermo Fisher, #13778150) per the manufacturer's instructions. For quantitative real-time PCR (qRT-PCR) analysis, total RNA was isolated 72 h later using an RNeasy Mini kit (Qiagen, #74104) according to the manufacturer's instructions; cDNAs were synthesized from 0.5 μg of total RNA using a High-Capacity cDNA Reverse Transcription Kit (Applied Biosystems, #4368813). qRT-PCR was performed with Power SYBR Green PCR Master Mix (Applied Biosystems, #4367659) on a QuantStudio 6 Flex Real-Time PCR System (Applied Biosystems). Relative gene expression was determined by ΔΔCt normalized to GAPDH.
Validation of IncRNA-drug predictive pairs in cell lines. MCF-7 cells (MCF-7/Vector and MCF-7/EPIC1) and A549 cells (A549/Vector and A549/EPIC1) stably expressing an empty vector and EPIC1 were established with retroviral particles using the previously published method. […]
The ectopic expression level of EPIC1 in stable cells was confirmed using PCR. […] The absorbance value was measured at 570 nm using an xMark Microplate Spectrophotometer (Bio-Rad) with a reference wavelength of 630 nm and the IC50 of JQ-1 and I-BET-762 on cells was calculated, respectively.

Myc targets = experiment: Myc target expression after knockdown (RNA-seq, qRT-PCR, western blot); settings: LNA against EPIC1, MCF-7 cells
Description: For RNA interference, cells were transfected with 40 nM siRNA targeting EPIC1, Myc, or a control siRNA using Lipofectamine RNAiMAX (ThermoFisher, #13778150) per the manufacturer's instructions. Total RNA was isolated 72 hr later for real-time PCR analysis. The siRNA sequences are SEQ ID NOS: 4-6.
For LNA transfection, cells were transfected with 40 nM LNA oligos targeting EPIC1, and a scramble control using Lipofectamine™ RNAiMAX per the guidelines. The LNA oligos (e.g., SEQ ID NO: 9) were designed and synthesized from Exiqon.
RNA Isolation and Quantitative Real-Time PCR (qRT-PCR) Assays: Total RNA was isolated from cultured cells using an RNeasy Mini kit (Qiagen, #74104) according to the manufacturer's instructions. cDNAs were synthesized from […] of total RNA using a High-Capacity cDNA Reverse Transcription Kit (Applied Biosystems, #4368813). Real-time PCR was performed with Power SYBR Green PCR Master Mix (Applied Biosystems, #4367659) on a QuantStudio 6 Flex Real-Time PCR System (Applied Biosystems). Relative gene expression was determined by DDCt normalized to GAPDH.
Cell lysates were also treated with equal volume of 2× SDS sample buffer and resolved by SDS-PAGE under denaturing conditions and transferred onto PVDF membranes (Bio-Rad, #162-0177). […]

MCF-7 and ZR-75-1 cells = experiment: Cell cycle assay (PI staining, flow cytometry); settings: LNA against EPIC1, MCF-7 cells
Description: For the cell cycle assay, cells were collected, rinsed with PBS, and fixed for a minimum of 2 hr by adding 70% ice-cold ethanol at −20° C. Cells were then sequentially washed once in PBS and BD Pharmingen stain buffer (BD Biosciences, #554656). Cell pellets were resuspended in 0.5 ml of BD Pharmingen PI/RNase staining buffer (BD Biosciences, #550825) and incubated for 15 min at room temperature (RT), and cells were immediately analyzed using an LSRFORTESSA X-20 flow cytometer (BD Biosciences). The data were analyzed with FlowJo software.

Compound: CCNC(=O)C[C@@H]1N=C(c2ccc(Cl)cc2)c2cc(OC)ccc2-n2c(C)nnc21 [iBET762, I-BET-762 (iBET762)]
- resistance to BET inhibitor promoted by EPIC1 [1]: strongly promotes iBET762 and JQ-1 resistance

Compound: (+)-JQ1 [JQ-1]
- resistance to BET inhibitor promoted by EPIC1 [1]: strongly promotes iBET762 and JQ-1 resistance

Compound: LNA: LNA oligo targeting EPIC1, e.g. SEQ ID NO: 9 (5′-GTCGACTCCTGCCGGA-3′), designed and synthesized from Exiqon (LNA oligo from Exiqon, LNA positions not given here)
- expression of Myc target genes (Myc targets): curtailed the expression of Myc target genes
- cell-cycle analysis (MCF-7 and ZR-75-1 cells): significantly caused Gi arrest of MCF-7 cells
